Test results taken from PubChem BioAssay AID1959 (Broad Institute, 2009).
Calls of active or inactive are those of the source.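 Rule for the calls: active = growth-inhibition EC50 no more than tenfold above the top tested dose; inconclusive = flat fit between 30% and 70% inhibition, or unreliable fit; inactive = EC50 more than tenfold above the top tested dose.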

Tested on: E. coli NEB5alpha growth, BacTiter-Glo luminescence, 4 h
Assay: Escherichia coli growth inhibition, dose response, counter-screen for MEX-5/POS-1 RNA-binding inhibitor project, luminescence, NEB5alpha (AID 1959);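 note: pUC19-transformed ampicillin-resistant cells grown in LB with ampicillin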

SMILES | EC50
COc1cc(C2C(C#N)=C(N)OC3=C2C(=O)CCC3)c([N+](=O)[O-])cc1OC (stereo unspecified) | > 11 µM (inactive)
O=C1NC(=O)[C@@H]2C3c4ccccc4C=CN3[C@H](C(=O)c3cccs3)[C@H]12 (stereo partly specified) | > 11 µM (inactive)
CCn1c(C)cc(/C=C2\C(=O)NC(=O)N(c3ccccc3C)C2=O)c1C | > 11 µM (inactive)
O=C(O)CC(C(=O)O)N1C(=O)/C(=C/C=C/c2ccco2)SC1=S (stereo unspecified) | > 11 µM (inactive)
CCc1ccc(S(=O)(=O)Nc2cc(SCC(=O)O)c(O)c3ccccc23)cc1 | > 11 µM (inactive)
CCOC(=O)c1cc(C(=O)OCC)cc(-n2c(C)cc(C(=O)CN3CCOCC3)c2C)c1 | > 11 µM (inactive)
COc1cccc2c1NC(C(=O)O)C1CC=CC21 (stereo unspecified) | > 11 µM (inactive)
COc1ccc(CCNC(=O)c2nn(C)c3c2CS(=O)(=O)c2ccccc2-3)cc1OC | > 11 µM (inactive)
Nc1ccc2nc(-c3cccc(-c4nc5ccc(N)cc5[nH]4)n3)[nH]c2c1 | > 11 µM (inactive)
COc1c(/C=C2/C(=O)NC(=O)N(C)C2=O)c(CCN(C)C(=O)c2ccccc2)cc2c1OCO2 | > 11 µM (inactive)
COc1cc(S(=O)(=O)Nc2ccc(C)cc2)ccc1N=Cc1c(C)c(C#N)c(=O)n(C)c1O | > 11 µM (inactive)
CC1(C)CCCN(C(=O)c2coc(=O)c(Br)c2)C1 | > 11 µM (inactive)
COC(=O)c1ccc(C23CC4(C2)[C@H](CN(Cc2ccc(C(F)(F)F)cc2)[C@@H]4c2ccccc2)C3c2ccccc2)cc1 (stereo partly specified) | > 11 µM (inactive)
C1=CC2c3ccccc3NC(c3ccncc3)C2C1 (stereo unspecified) | > 11 µM (inactive)
O=S(=O)([N-]c1nc2ccccc2nc1-[n+]1ccc(CCCc2ccccc2)cc1)c1cccs1 | > 11 µM (inactive)
Cc1cccc(-c2c3c(=O)n(C)c(=O)n(C)c3c3cccnn23)c1 | > 11 µM (inactive)
CC1(OC(=O)c2ccco2)C(=O)C=C2C=C(C3CC3)OC=C2C1=O (stereo unspecified) | > 11 µM (inactive)
CCCCc1cn([C@@H](CCCCN)C(=O)N2CCNCC2)nn1 | > 11 µM (inactive)
NC(=O)c1sc2nnc(-c3ccccc3)c(-c3ccccc3)c2c1N | > 11 µM (inactive)
COC(=O)c1ccc(-n2c(C)cc(C(=O)COC(=O)CNS(=O)(=O)c3ccc(C)cc3)c2C)cc1 | > 11 µM (inactive)
Cc1ccccc1N=C1NC(=O)/C(=C/c2cccn2-c2cccc(C(=O)O)c2)S1 | > 11 µM (inactive)
N=c1c(C(=O)NCc2ccc(F)cc2)cc2c(=O)n3ccccc3nc2n1Cc1cccnc1 | > 11 µM (inactive)

SMILES | EC50
COC(=O)CCCC1=CC2=CC(=O)C(C)(OC(=O)C3CCCC3)C(=O)C2=CO1 (stereo unspecified) | > 11 µM (inactive)
C=CCN1C(=O)/C(=C2/Sc3ccc(OC)cc3N2CC)SC1=S | > 11 µM (inactive)
Cc1cc[n+](C2=C([O-])c3ccccc3C(=O)/C2=N\S(=O)(=O)c2cccs2)cc1C | > 11 µM (inactive)
O=C(NNC(=S)NC(=O)c1ccccc1[N+](=O)[O-])c1ccccc1O | > 11 µM (inactive)
CCOC(=O)Cn1c2ccc(OC)cc2c2nc3ccccc3nc21 | > 11 µM (inactive)
Cc1cc(C)c2c(c1)C1C=CCC1C(c1ccc(S(=O)(=O)N3CCOCC3)cc1)N2 (stereo unspecified) | > 11 µM (inactive)
COc1ccc(C2C(C(=O)c3ccco3)=C(O)C(=O)N2c2nnc(C)s2)cc1OC (stereo unspecified) | > 11 µM (inactive)
CCOC(=O)c1ccc2c(c1)C1C=CCC1C(C(=O)OCC)N2 (stereo unspecified) | > 11 µM (inactive)
Cc1ccccc1Nc1nc(Cl)c(C=O)s1 | > 11 µM (inactive)
Cn1c(C(=O)NCCCN2CCOCC2)cc2c(=O)n(C)c3ccccc3c21 | > 11 µM (inactive)
CCc1ccccc1N1C(=O)NC(=O)/C(=C\c2cc(C)n(C)c2C)C1=O | > 11 µM (inactive)
COc1cc([N+](=O)[O-])cc(/C=N/NC(=O)CC#N)c1O | > 11 µM (inactive)
C=CCn1c(Cc2nc3ccccc3[nH]2)n[nH]c1=S | > 11 µM (inactive)
O=C(O)c1cccc(-n2cccc2/C=C2/NC(=O)N(Cc3ccccc3F)C2=O)c1 | > 11 µM (inactive)
Cc1ccc2c(c1C)NC(C(=O)O)C1CC=CC21 (stereo unspecified) | > 11 µM (inactive)
O=C(c1ccc(Br)o1)N1CCN=C1SCc1cccc(F)c1 | > 11 µM (inactive)
O=C1CS/C(=N/N=C/c2cccs2)N1 | > 11 µM (inactive)
COc1ccc(C2C(C#N)=C(N)OC3=C2C(=O)CC(C)(C)C3)cc1Cn1cc([N+](=O)[O-])cn1 (stereo unspecified) | > 11 µM (inactive)
COC(=O)Cn1cc(/C=C2\C(=O)NC(=O)N(c3ccc(OC)cc3)C2=O)c2ccccc21 | > 11 µM (inactive)
COc1ccc(-c2cc3ccc(OCC(N)=O)cc3oc2=O)cc1OC | > 11 µM (inactive)
COc1ccc(Nc2nc3ccccc3nc2NS(=O)(=O)c2cccs2)c(OC)c1 | > 11 µM (inactive)
COC(=O)c1cc(C(=O)OC)cc(-n2c(C)cc(C=O)c2C)c1 | > 11 µM (inactive)

SMILES | EC50
Cc1ccc2c(c1)C1C=CCC1C(C(=O)NCCCN1CCOCC1)N2 (stereo unspecified) | > 11 µM (inactive)
Nc1ncnc(NNC(=O)CNC(=O)c2c(F)cccc2Cl)c1[N+](=O)[O-] | > 11 µM (inactive)
O=C(O)CCc1ccc(-c2cccs2)n1-c1ccc(C(=O)O)cc1 | > 11 µM (inactive)
O=C1c2cc(F)ccc2-n2c1nc1ccccc1c2=O | > 11 µM (inactive)
Cc1ccc(S(=O)(=O)N2CCOCC2)cc1C(=O)Nc1ccc(S(=O)(=O)Nc2nccs2)cc1 | > 11 µM (inactive)
O=c1/c(=C\c2ccc(O)cc2)sc2nc(-c3ccccc3)c(-c3ccccc3)n12 | > 11 µM (inactive)
Cc1ccc2[nH]c(=O)c(CN(CCO)Cc3nnnn3CCc3ccccc3)cc2c1 | > 11 µM (inactive)
Cc1ccc(N=Nc2[nH]c3ccccc3c2O)cc1 | > 11 µM (inactive)
COc1ccc(C2=CC3=C(Br)C(=O)C(C)(OC(=O)c4ccc(Cl)nc4)C(=O)C3=CO2)cc1 (stereo unspecified) | > 11 µM (inactive)
CC1(OC(=O)c2cnc3ccccc3n2)C(=O)C=C2C=C(C3CC3)OC=C2C1=O (stereo unspecified) | > 11 µM (inactive)
COc1ccc(/C=C2\CCCC(C(=O)C(F)(F)F)=C2O)cc1 | > 11 µM (inactive)
c1coc(-c2nnc(-c3ccco3)nn2)c1 | > 11 µM (inactive)
COC(=O)c1ccc(C2Nc3ccc(/C(C)=N/NC(=O)C(OC)c4ccccc4)cc3C3C=CCC32)cc1 (stereo unspecified) | > 11 µM (inactive)
COc1ccc(NC(=O)NS(=O)(=O)c2ccc(C)cc2)cn1 | > 11 µM (inactive)
NS(=O)(=O)c1ccc(N=Nc2c[nH]c(=O)c(O)c2)cc1 | > 11 µM (inactive)
COc1ccccc1NC(=O)/C(C#N)=C/c1cc([N+](=O)[O-])ccc1N1CCCC1 | > 11 µM (inactive)
CCOC(=O)C1Nc2ccc(C(=O)O)cc2C2C=CCC12 (stereo unspecified) | > 11 µM (inactive)
Cc1cc([N+](=O)[O-])ccc1-c1ccc(/C=N/NC(=O)c2ccc(Br)o2)o1 | > 11 µM (inactive)
O=C1N=c2ccc([N+](=O)[O-])cc2=C1c1sc(=O)[nH]c1O | > 11 µM (inactive)
COc1ccc(N2C(=O)NC(=O)/C(=C\c3cn(CC(=O)N4CCOCC4)c4ccccc34)C2=O)c(OC)c1 | > 11 µM (inactive)
CCOc1ccc(N/C(=C(/C(Cl)=C(Cl)Cl)[N+](=O)[O-])n2cncn2)cc1 | > 11 µM (inactive)
Cc1ccc(NC(=O)CSc2nccc(=O)[nH]2)c(S(=O)(=O)N2CCOCC2)c1 | > 11 µM (inactive)
